In US8927721B2, “Naphthyridine derivative” (Shionogi & Co., Ltd., priority 2010, dated 2015):

Assays:
Recombinant human BACE1 = biological target: T1, Recombinant human BACE1 (Homo sapiens, UniProt P56817); test: Assay of BACE1 inhibitory activity; format: biochemical; settings: Recombinant human BACE1, 30° C., 3 hours, pH 5.0; read-out: IC50 (50% inhibitory concentration against the enzymatic activity)
T1 construct: purchased R&D Systems
Experimental: 48.5 μL of substrate peptide solution (Biotin-XSEVNLDAEFRHDSGC-Eu: X=ε-amino-n-capronic acid, Eu=Europium cryptate) was added to each well of 96-hole half-area plate (a black plate: Costar), and after addition of 0.5 μl of the compound of the present invention (N,N′-dimethylformamide solution) and 1 μl of Recombinant human BACE1(R&D Systems), the reaction mixture was incubated at 30° C. for 3 hours. The substrate peptide was synthesized by reacting Cryptate TBPCOOH mono SMP (CIS bio international) with Biotin-XSEVNLDAEFRHDSGC (Peptide Institute, Inc.). The final concentrations of the substrate peptide and Recombinant human BACE1 were adjusted to 18 nmol/L and 7.4 nmol/L, respectively, and the reaction was performed in sodium acetate buffer (50 mmol/L sodium acetate, pH 5.0, 0.008% Triton X-100). After the incubation for reaction, 50 μl of 8.0 μg/ml Streptavidin-XL665 (CIS bio international) dissolved in phosphate buffer (150 mmol/L K2HPO4—KH2PO4, pH 7.0, 0.008% Triton X-100, 0.8 mol/L KF) was added to each well and left stand at 30° C. for 1 hour. After then, fluorescence intensity was measured (excitation wavelength: 320 nm, measuring wavelength: 620 nm and 665 nm) using Wallac 1420 multilabel counter (Perkin Elmer life sciences). Enzymatic activity was determined from counting ratio of each wavelength (10,000×Count 665/Count 620) and 50% inhibitory concentration against the enzymatic activity (IC50) was calculated.

[1] = Solubility test (turbidity, JP-I, JP-II); format: physicochemical; settings: kinetic from dmso stock, turbidity after 4 hours, 2% DMSO
Experimental: A 2-fold dilution series (12 points) of a 10 mM solution of a compound of the present invention in DMSO was added to a medium (JP-I, JP-II) (2%), and solubility was assessed by 3 stages (High; >40 μM, Medium; 3-40 μM, Low; <3 μM) from a turbidity after 4 hours.

[2] = system: Aβ production in Neuroblastoma SH-SY5Y cells (SH/APPwt); test: Measurement of β-amyloid (Aβ) production inhibiting effect in cell; format: cell-based; settings: Homo sapiens, 24 hours, Amyloid β1-40 HTRF, read-out: IC50 (amount needed to inhibit Aβ production by 50%)
Experimental: Neuroblastoma SH-SY5Y cells (SH/APPwt) with human wild-type 13-APP excessively expressed therein were prepared at 8×10^5 cells/mL, and 150 μl portions thereof were inoculated into each well of a 96-well culture plate (Falcon). The cells were cultured for 2 hours at 37° C. in a 5% gaseous carbon dioxide incubator. Then, a solution which have been preliminarily prepared by adding and suspending the compound of the present invention (DMSO (dimethyl sulfoxide) solution) so as to be 2 μl/50 μl medium was added to the cell sap. Namely, the final DMSO concentration was 1%, and the amount of the cell culture was 200 μl. After the incubation was performed for 24 hours from the addition of the test compound, 100 μl of the culture supernatant was collected from each fraction. The amount of the Aβ in each fraction was measured.
The Aβ amount was measured as follows. 10 μl of a homogeneous time resolved fluorescence (HTRF) measurement reagent (Amyloid β1-40 peptide; IBA Molecular Holding, S.A.) and 10 μl of the culture supernatant were put into a 384-well half area microplate (black microplate, Costar) and mixed with each other, and then left standing overnight at 4° C. while the light was shielded. Then, the fluorescence intensity (excitation wavelength: 337 nm, measurement wavelength: 620 nm and 665 nm) was measured with Wallac 1420 multilabel counter (Perkin Elmer life sciences). The Aβ amount was determined from the count rate at each measurement wavelength (10000×Count 665/Count 620), and the amount needed to inhibit A6 production by 50% (IC50) was calculated from at least six different dosages.

CYP3A4 = CYP3A4 (Homo sapiens, UniProt P08684); test: CYP3A4 fluorescent MBI test; format: in vitro ADME; design: host or cells: Escherichia coli; settings: pre-reaction time 0 or 30 minutes, substrate 7-BFC
Experimental: The CYP3A4 fluorescent MBI test is a test of investigating enhancement of CYP3A4 inhibition of the compound of the present invention by a metabolism reaction. 7-benzyloxytrifluoromethylcoumarin (7-BFC) is debenzylated by the CYP3A4 enzyme (enzyme expressed in Escherichia coli) and a metabolite, 7-hydroxytrifluoromethylcoumarin (7-HFC) which emits fluorescent light is produced. The test is performed using 7-HFC production reaction as an index.
The reaction conditions are as follows: substrate, 5.6 μmol/L 7-BFC: pre-reaction time, 0 or 30 minutes; reaction time, 15 minutes; reaction temperature, 25° C. […]
An enzyme in a K-Pi buffer (pH 7.4) and the compound of the present invention solution as a pre-reaction solution were added to a 96-well plate at the composition of the pre-reaction, a part of it was transferred to another 96-well plate so that it was 1/10 diluted by a substrate in a K-Pi buffer, NADPH as a co-factor was added to initiate a reaction as an index (without preincubation) and, after a predetermined time of a reaction, acetonitrile/0.5 mol/L Tris (trishydroxyaminomethane)=4/1 was added to stop the reaction. […] For the plate on which each index reaction had been performed, a fluorescent value of 7-HFC which is a metabolite was measured with a fluorescent plate reader. […]

T1 sequence (P56817 46-501): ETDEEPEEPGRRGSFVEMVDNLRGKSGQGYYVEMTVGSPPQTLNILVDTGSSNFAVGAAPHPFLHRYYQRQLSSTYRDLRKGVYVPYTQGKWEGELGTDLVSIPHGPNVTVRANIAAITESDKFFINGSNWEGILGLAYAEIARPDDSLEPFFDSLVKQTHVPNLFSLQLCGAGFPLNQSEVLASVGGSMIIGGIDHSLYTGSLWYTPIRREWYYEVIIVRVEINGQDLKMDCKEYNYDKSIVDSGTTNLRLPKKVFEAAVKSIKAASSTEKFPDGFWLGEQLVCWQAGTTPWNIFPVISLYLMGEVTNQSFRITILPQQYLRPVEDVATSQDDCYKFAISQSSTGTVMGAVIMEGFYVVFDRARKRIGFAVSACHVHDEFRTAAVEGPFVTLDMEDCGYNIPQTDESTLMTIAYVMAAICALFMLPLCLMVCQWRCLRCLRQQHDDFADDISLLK
Sequence of CYP3A4 (P08684 whole entry): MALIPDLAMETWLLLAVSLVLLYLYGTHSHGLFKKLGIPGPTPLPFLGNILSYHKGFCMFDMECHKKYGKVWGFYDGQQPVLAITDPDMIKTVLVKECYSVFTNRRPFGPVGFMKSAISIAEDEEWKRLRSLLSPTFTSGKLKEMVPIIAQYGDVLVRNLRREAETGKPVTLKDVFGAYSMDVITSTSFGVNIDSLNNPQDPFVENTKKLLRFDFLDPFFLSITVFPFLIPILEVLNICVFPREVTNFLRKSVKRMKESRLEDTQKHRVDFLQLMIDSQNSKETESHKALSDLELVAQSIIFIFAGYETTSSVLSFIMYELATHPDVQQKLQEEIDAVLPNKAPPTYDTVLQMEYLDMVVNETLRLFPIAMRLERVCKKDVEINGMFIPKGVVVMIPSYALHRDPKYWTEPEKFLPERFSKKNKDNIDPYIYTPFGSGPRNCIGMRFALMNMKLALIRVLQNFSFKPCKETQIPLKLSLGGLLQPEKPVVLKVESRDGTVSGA

Row | IC50 (Recombinant human BACE1) [nM] | SMILES | further results
1 | ≤ 1000 | Cc1cnc(C(=O)Nc2ccc(F)c(C3(C)Cc4ccncc4C(N)=N3)c2)cn1 (stereo not drawn) [Compound I-25] | –
2 | ≤ 1000 | Cc1cnc(C(=O)Nc2ccc(F)c(C3(C)Cc4c(F)cncc4C(N)=N3)c2)cn1 (stereo not drawn) [Compound I-21] | –
3 | ≤ 1000 | CC1(c2cc(NC(=O)c3ccc(C#N)cn3)ccc2F)Cc2c(F)cncc2C(N)=N1 (stereo not drawn) [Compound I-9] | solubility at 4 h ([1]; JP-I medium, pH 1.2, simulated gastric fluid, JP-I): > 40 µM; solubility at 4 h ([1]; JP-II medium, pH 6.8, aqueous buffer, JP-II): > 40 µM
4 | ≤ 1000 | CC1(c2cc(NC(=O)c3ccc(Cl)cn3)ccc2F)Cc2ccncc2C(N)=N1 (stereo not drawn) [Compound I-3] | –
5 | ≤ 1000 | CC1(c2cc(NC(=O)c3ccc(C#N)cn3)ccc2F)Cc2cncc(F)c2C(N)=N1 (stereo not drawn) [Compound I-6] | –
6 | ≤ 1000 | Cc1cnc(C(=O)Nc2ccc(F)c(C3(C)Cc4cnccc4C(N)=N3)c2)cn1 (stereo not drawn) [Compound I-15] | –
7 | ≤ 1000 | CC1(c2cc(NC(=O)c3ncc(F)cc3F)ccc2F)Cc2c(F)cncc2C(N)=N1 (stereo not drawn) [Compound I-18] | –
8 | ≤ 1000 | CC1(c2cc(NC(=O)c3ccc(C#N)cn3)ccc2F)Cc2c(ccnc2F)C(N)=N1 (stereo not drawn) [Compound I-10] | –
9 | ≤ 1000 | CC1(c2cc(NC(=O)c3ccc(Cl)cn3)ccc2F)Cc2cnccc2C(N)=N1 (stereo not drawn) [Compound I-11] | –
10 | ≤ 1000 | CC1(c2cc(NC(=O)c3ccc(C#N)cn3)ccc2F)Cc2ccncc2C(N)=N1 (stereo not drawn) [Compound I-8] | –
11 | ≤ 3000 | COCC#CC(=O)Nc1ccc(F)c(C2(C)Cc3cnccc3C(N)=N2)c1 (stereo not drawn) [Compound I-28] | IC50 [2]: ≤ 3000 nM
12 | 308 | CC#CC(=O)Nc1ccc(F)c(C2(C)Cc3cnccc3C(N)=N2)c1 (stereo not drawn) [Compound I-27] | –
13 | ≤ 1000 | CC1(c2cc(NC(=O)c3ccc(Cl)cn3)ccc2F)Cc2c(F)cncc2C(N)=N1 (stereo not drawn) [Compound I-17] | –
14 | 147 | CC1(c2cc(NC(=O)C#Cc3ccccc3)ccc2F)Cc2cnccc2C(N)=N1 (stereo not drawn) [Compound I-30] | IC50 [2]: 46 nM
15 | ≤ 1000 | CC1(c2cc(NC(=O)c3ccc(C#N)cn3)ccc2F)Cc2ncc(F)cc2C(N)=N1 (stereo not drawn) [Compound I-7] | IC50 [2]: 2 nM
16 | ≤ 1000 | CCC#CC(=O)Nc1ccc(F)c(C2(C)Cc3cnccc3C(N)=N2)c1 (stereo not drawn) [Compound I-33] | –

Row | IC50 (Recombinant human BACE1) [nM] | SMILES | further results
17 | ≤ 1000 | CC#CCOc1cnc(C(=O)Nc2ccc(F)c(C3(C)Cc4c(F)cncc4C(N)=N3)c2)cn1 (stereo not drawn) [Compound I-22] | –
18 | ≤ 1000 | CC1(c2cc(NC(=O)c3ccc(C#N)cn3)ccc2F)Cc2cccnc2C(N)=N1 (stereo not drawn) [Compound I-4] | –
19 | ≤ 1000 | CC1(c2cc(NC(=O)c3ncc(F)cc3F)ccc2F)Cc2cnccc2C(N)=N1 (stereo not drawn) [Compound I-12] | –
20 | ≤ 1000 | CC1(c2cc(NC(=O)c3ccc(C(F)(F)F)cn3)ccc2F)Cc2c(F)cncc2C(N)=N1 (stereo not drawn) [Compound I-19] | –
21 | ≤ 3000 | CCCC#CC(=O)Nc1ccc(F)c(C2(C)Cc3cnccc3C(N)=N2)c1 (stereo not drawn) [Compound I-29] | –
22 | 54 | CC1(c2cc(NC(=O)c3ccc(C#N)cn3)ccc2F)Cc2ncccc2C(N)=N1 (stereo not drawn) [Compound I-1] | CYP3A4 fluorescent MBI (difference between IC50 values without and with preincubation) (CYP3A4): (−) (when the difference is 3 μM or less, this was defined as (−))
23 | ≤ 3000 | CCCCC#CC(=O)Nc1ccc(F)c(C2(C)Cc3cnccc3C(N)=N2)c1 (stereo not drawn) [Compound I-32] | –
24 | ≤ 1000 | CC1(c2cc(NC(=O)c3ccc(C(F)(F)F)cn3)ccc2F)Cc2ccncc2C(N)=N1 (stereo not drawn) [Compound I-23] | –
25 | ≤ 1000 | CC#CCOc1cnc(C(=O)Nc2ccc(F)c(C3(C)Cc4cnccc4C(N)=N3)c2)cn1 (stereo not drawn) [Compound I-16] | –
26 | ≤ 1000 | COc1cnc(C(=O)Nc2ccc(F)c(C3(C)Cc4cnccc4C(N)=N3)c2)cn1 (stereo not drawn) [Compound I-14] | –
27 | ≤ 1000 | COc1cnc(C(=O)Nc2ccc(F)c(C3(C)Cc4ccncc4C(N)=N3)c2)cn1 (stereo not drawn) [Compound I-24] | –
28 | ≤ 1000 | COc1cnc(C(=O)Nc2ccc(F)c(C3(C)Cc4c(F)cncc4C(N)=N3)c2)cn1 (stereo not drawn) [Compound I-20] | –
29 | ≤ 1000 | CC#CC(=O)Nc1ccc(F)c(C2(C)Cc3c(F)cncc3C(N)=N2)c1 (stereo not drawn) [Compound I-34] | IC50 [2]: 20 nM
30 | ≤ 1000 | CC#CCOc1cnc(C(=O)Nc2ccc(F)c(C3(C)Cc4ccncc4C(N)=N3)c2)cn1 (stereo not drawn) [Compound I-26] | –
31 | ≤ 1000 | CC1(c2cc(NC(=O)c3ccc(C(F)(F)F)cn3)ccc2F)Cc2cnccc2C(N)=N1 (stereo not drawn) [Compound I-13] | –
32 | ≤ 3000 | CC1(c2cc(NC(=O)C#CC3CC3)ccc2F)Cc2cnccc2C(N)=N1 (stereo not drawn) [Compound I-31] | –
